Results as given in patent publication US5332743A, “Benzyl and benzhydryl alcohols” (priority 1992, dated 1994).
Read-outs that look alike come from different tables or passages of the source.

Columns and labels:
dopamine D2 receptor = target: T1, dopamine D2 receptor (Rattus norvegicus, UniProt P61169); assay: Receptor Binding Assay: dopamine D2 binding, 3H-spiperone, striatal P2 fraction; conditions: 3H-spiperone 0.05 nM, 45 min at 37° C., read-out: D-2 Binding K-I
T1 construct: P2 fraction (synaptosomal membranes) prepared from male, Wistar rats; from tissue; host or cells: striatum of male Wistar rats, P2 fraction (synaptosomal membranes)
Protocol: The dopamine D2 binding activity of compounds was determined using a P2 fraction (synaptosomal membranes) prepared from male, Wistar rats. […] The data from this assay were analyzed by calculating the percent inhibition of the binding of the tritiated ligands by given concentrations of the test compound. Ki values, where given, were obtained from the logit analysis of concentration-inhibition curves.

[1] = system: Conditioned Avoidance Responding (Rat); assay: Block of Conditioned Avoidance Responding (Rat) test (CAR); type: in vivo; conditions: for change in vivo at 5 mg/kg: read-out: CAR 5 mg/kg (IP) (mean % change in CAR); for Escape Loss (% failures to escape, group mean): at CAR 5 mg/kg IP
Excerpt: Block of Conditioned Avoidance Responding (Rat)
Apparatus: Rat operant chambers, housed within sound attenuated booths, both from Capden Instruments Ltd., were used in this test. The test chamber (8" H×90-3/8" W×9" D) is constructed of aluminum and plexiglass with floor grid bars of stainless-steel (1/8" O.D.) spaced 9/16" apart. A stainless-steel operation level 1-1/2" wide projects 3/4" into the chamber and is positioned 2-2/8" above the grid floor. The shock stimulus is delivered via the grid floor by a Coulbourn Instruments solid state module. The parameters of the test and the collection of data are controlled automatically.
The rats are trained for two weeks to approach criterion levels in the avoidance test (90% avoidance rate). One-hour training sessions are run at about the same time each day for four or five days a week. The training session consists of 120 trials, with the conditioned stimuli presented every 30 seconds. A trail begins with presentation of the conditioned stimuli (a light and a tone). If the rat responds by depressing the operant lever during the 15-second presentation of the conditioned stimuli, the trial is terminated and the animal is credited with a CAR. Failure to respond during the conditioned stimuli causes the presentation of the unconditioned stimulus, a 0.7 mA shock which is accompanied by a light and tone for […]. If the rat depressed the lever within the ten-second period, the shock and trial are terminated and an escape response recorded. If the rat fails to depress the lever during the UCS (shock), the trial is terminated after ten seconds of shock and the absence of a response is scored as a failure to escape. Intertrial level presses have no effect. If a rat performs at the 90% CAR level for two weeks, it is then run twice a week o the test schedule (see below) until baseline performance stabilized.
The percent change in CAR on the drug treatment day compared to vehicle pretreatment day is the key measure. The percent change (% change) in CAR is determined using the following formula:
% change CAR=((Day 2% CAR/Day 1% CAR)×100)-100
A negative number indicates a blockade of CAR, whereas a positive number would indicate increased CAR. The test results are reported as the mean % change for the group of rats. […] Failure to escape was calculated for each animal as follows:
% Failures=# of Failures to Escape/# of trials
The % failures, viz., loss of escape, is also reported as a group mean. Failures to escape are monitored closely and a session is terminated if ten failures occurred.

[2] = rat, 5 mg/kg IP, negative number = blockade of CAR, -20% is the minimum for active

T1 sequence (P61169 whole entry): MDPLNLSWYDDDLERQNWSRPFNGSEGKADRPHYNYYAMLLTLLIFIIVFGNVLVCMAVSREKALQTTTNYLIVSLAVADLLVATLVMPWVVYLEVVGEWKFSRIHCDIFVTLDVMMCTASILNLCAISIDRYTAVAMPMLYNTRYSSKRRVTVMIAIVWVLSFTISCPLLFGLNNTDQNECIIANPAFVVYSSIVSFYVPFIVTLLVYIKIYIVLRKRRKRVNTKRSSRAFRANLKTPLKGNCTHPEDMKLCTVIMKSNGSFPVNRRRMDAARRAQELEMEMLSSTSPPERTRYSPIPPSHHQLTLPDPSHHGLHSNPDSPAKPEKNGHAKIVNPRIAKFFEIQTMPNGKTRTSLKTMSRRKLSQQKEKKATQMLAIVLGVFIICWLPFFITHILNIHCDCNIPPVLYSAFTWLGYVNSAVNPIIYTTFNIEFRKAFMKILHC

Row | Compound | Ki (dopamine D2 receptor) | Escape Loss (% failures to escape, group mean) ([1]; rat) | change in vivo at 5 mg/kg ([1]; Rattus norvegicus, ip) | change in vivo at 5 mg/kg [1, 2]
1 | CC(C)Oc1ccccc1N1CCN(Cc2cccc(CO)c2)CC1 [Compound 4, 1-(3-Hydroxymethylphenyl)methyl-4-[2-(1-methylethoxy)phenyl]-piperazine] | 302 nM | 13% | -89.2% | –
2 | COc1ccccc1N1CCN(Cc2cccc(C(O)c3ccccc3)c2)CC1 (stereo not drawn) [Compound 5, [3-[4-(2-Methoxyphenyl)-1-piperazinyl]methyl]-α-phenylbenzenemethanol] | 87 nM | 2% | – | -64.6%
3 | CCC(C)(O)c1cccc(CN2CCN(c3ccccc3OC)CC2)c1 (stereo not drawn) [Compound 6, [3-[4-(2-Methoxyphenyl)-1-piperazinyl]methyl]-α-methyl-α-ethylbenzenemethanol] | 198 nM | 2% | – | -86%
4 | COc1ccccc1N1CCN(Cc2cccc(C(O)C(C)C)c2)CC1 (stereo not drawn) [Compound 7, [3-[4-(2-Methoxyphenyl)-1-piperazinyl]methyl]-α-(1-methylethyl)-benzenemethanol] | 90 nM | 12% | – | -98.8%

Stronger by Ki (dopamine D2 receptor), values ahead:

Row | Ki (dopamine D2 receptor) | Escape Loss (% failures to escape, group mean) ([1]; rat) | Compound | change in vivo at 5 mg/kg ([1]; Rattus norvegicus, ip) | change in vivo at 5 mg/kg [1, 2]
5 | 53 nM | 32% | COc1ccccc1N1CCN(Cc2ccc(C(O)c3ccccc3)cc2)CC1 (stereo not drawn) [Compound 9, [4-[4-(2-Methoxyphenyl)-1-piperazinyl]methyl]-α-phenylbenzenemethanol] | – | -99.4%
6 | 16 nM | 2% | COc1ccccc1N1CCN(Cc2cccc(C(O)C3CCCCC3)c2)CC1 (stereo not drawn) [Compound 8, [3-[4-(2-Methoxyphenyl)-1-piperazinyl]methyl]-α-(cyclohexyl)-benzenemethanol] | – | -92.9%
